{"source": "patent US20160374979A1", "about": "“Method of Treatment of Alopecia with Monoterpenoids” (CELLMID LIMITED, priority 2013, published 2016)", "molecules": {"B1": {"name": "FGF-5: FGF-5 protein (R&D Systems) added to follicle culture medium at 300 ng/mL (protein, UniProt P12034 21-268, looked up)", "Fibroblast growth factor 5": "HGEKRLAPKGQPGPAATDRNPRGSSSRQSSSSAMSSSSASSSPAASLGSQGSGLEQSSFQWSPSGRRTGSLYCRVGIGFHLQIYPDGKVNGSHEANMLSVLEIFAVSQGIVGIRGVFSNKFLAMSKKGKLHASAKFTDDCKFRERFQENSYNTYASAIHRTEKTGREWYVALNKRGKAKRGCSPRVKPQHISTHFLPRFKQSEQPELSFTVTVPEKKKPPSPIKPKIPLSAPRKNTNSVKYRLKFRFG"}}, "key": {"alopecia patients": {"system": "alopecia patients", "settings": "cited from earlier work"}, "[1]": {"system": "murine vibrissae follicles", "assay": "Hair shaft elongation of murine vibrissae follicles cultured ex vivo", "set-up": "species or system C3H mice", "settings": "exogenous FGF-5 300 ng/mL, 8 days, versus control (FIGS. 20 and 21)", "text": "Five week old male C3H mice (supplied by Japan SLC, lnc., Hamamatsu, Japan) were used for isolation of vibrissae follicles. The mice were sacrificed and the vibrissae follicles were carefully dissected from the mystacial pad. Briefly, the mystacial pad was cut into two sides (left and right). The skin cut, picked at the edge by tweezers, was washed in (i) 70% Ethanol for 30 seconds, (ii) PBS for 10 seconds, (iii) fresh PBS for 10 seconds, and (iv) another fresh PBS for 10 seconds. This washing process was repeated twice. After washing, the skin cut was placed inverted to expose the vibrissae follicles in Dulbecco's Modified Eagle's Medium (DMEM; Wako Pure Chemical, Osaka, Japan) at 37° C. Under a dissecting microscope, the surrounding tissue was removed from the follicles using tweezers, carefully so as not to destroy the structure of the follicles. The isolated follicles were then placed immediately into Williams' E medium (Life Technologies, Carlsbad, USA).\nFrom the isolated mouse vibrissae follicles, only early anagen follicles were selected and randomized into groups with 30 follicles per group. […]\nFollicles in each of the treatment and control groups were incubated at 37° C. at 5% CO2 for 8 days, while exchanging the respective culture mediums every 2 days. From Day 1, elongation of hair shafts was observed and the elongation length was measured for each hair shaft every 24 hours from Day 1 to Day 8 using a micrometer under microscope. […]\nFollicles in each of the treatment and control groups were incubated at 37° C. at 5% CO2 for 5 days, while exchanging the culture medium every 3 days. From Day 1, elongation of hair shafts was observed and the elongation length was measured for each hair shaft every 24 hours from Day 1 to Day 5. using a micrometer under microscope. […]"}}, "data": [{"molecule": "CC(C)(C)NC(=O)[C@H]1CC[C@H]2[C@@H]3CC[C@H]4NC(=O)C=C[C@]4(C)[C@H]3CC[C@]12C", "note": "[finasteride, Finasteride]", "values": [{"measurement": "balding male recipients with poor or no response", "setting": "alopecia patients; finasteride treatment", "result": "≥ 35", "unit": "%"}]}, {"molecule": "Nc1cc(N2CCCCC2)nc(N)[n+]1[O-]", "note": "[Minoxidil]", "values": [{"measurement": "patients with irritation of the scalp (dryness, scaling, itching, redness)", "setting": "alopecia patients; 2% solution", "result": "approximately 7%"}]}, {"molecule": "B1", "values": [{"measurement": "rate of hair shaft elongation", "setting": "[1]", "result": "slow the rate of hair shaft elongation over time"}]}]}
